Results reported in ChEMBL document CHEMBL5465560, “Selectivity Literature for EUbOPEN Chemogenomic Library” (2024).

Assays:
[1] = molecular target: T1, Aurora kinase C (Homo sapiens) (UniProt Q9UQB9); experiment: Selectivity interaction (Ambit KINOMEscan and KiNATiv profiling in Jurkat cells) EUB0000090b AURKC; format: cell-based; conditions: at 1 µM
T1 sequence (whole entry): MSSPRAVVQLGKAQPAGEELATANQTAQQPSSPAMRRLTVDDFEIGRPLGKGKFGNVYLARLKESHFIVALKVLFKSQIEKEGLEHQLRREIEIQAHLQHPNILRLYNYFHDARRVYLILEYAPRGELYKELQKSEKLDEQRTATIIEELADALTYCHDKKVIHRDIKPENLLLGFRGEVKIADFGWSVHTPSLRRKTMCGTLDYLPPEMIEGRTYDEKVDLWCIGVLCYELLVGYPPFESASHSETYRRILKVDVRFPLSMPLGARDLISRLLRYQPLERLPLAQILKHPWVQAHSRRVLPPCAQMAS

[2] = molecular target: T2, Serine/threonine-protein kinase DCLK1 (Homo sapiens) (UniProt O15075); experiment: Selectivity interaction (Kinase panel (DSF assay)) EUB0001559a DCLK1
T2 sequence (whole entry): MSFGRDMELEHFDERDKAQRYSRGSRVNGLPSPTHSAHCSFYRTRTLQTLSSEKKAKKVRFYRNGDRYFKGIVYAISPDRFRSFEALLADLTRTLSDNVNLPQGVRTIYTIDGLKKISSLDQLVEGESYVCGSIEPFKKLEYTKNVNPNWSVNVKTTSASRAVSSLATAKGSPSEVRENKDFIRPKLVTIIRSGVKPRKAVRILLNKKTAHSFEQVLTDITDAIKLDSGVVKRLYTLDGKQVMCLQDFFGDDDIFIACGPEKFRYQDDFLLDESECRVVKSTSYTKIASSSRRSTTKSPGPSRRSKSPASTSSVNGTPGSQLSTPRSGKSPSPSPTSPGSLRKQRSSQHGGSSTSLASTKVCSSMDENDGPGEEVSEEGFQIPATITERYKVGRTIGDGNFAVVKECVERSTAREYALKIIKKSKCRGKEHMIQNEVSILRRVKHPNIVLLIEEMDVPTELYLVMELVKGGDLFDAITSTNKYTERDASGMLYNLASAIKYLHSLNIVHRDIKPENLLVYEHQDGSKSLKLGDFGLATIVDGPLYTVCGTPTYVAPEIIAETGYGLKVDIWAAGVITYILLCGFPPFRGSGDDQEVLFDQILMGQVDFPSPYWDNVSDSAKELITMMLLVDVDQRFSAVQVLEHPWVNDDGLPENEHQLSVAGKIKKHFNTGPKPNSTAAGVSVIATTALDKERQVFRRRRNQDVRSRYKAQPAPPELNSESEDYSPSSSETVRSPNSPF

[3] = molecular target: Tyrosine-protein kinase ABL2 (Homo sapiens, UniProt P42684); experiment: Selectivity interaction (KinomeScan (DiscoverX)) EUB0001079a ABL2; conditions: at 1 µM
[4] = molecular target: T3, Protein kinase C epsilon type (Homo sapiens) (UniProt Q02156); experiment: Selectivity interaction (SelectScreen profiling (Invitrogen)) EUB0000607a PRKCE; conditions: at 2 µM
T3 sequence (whole entry): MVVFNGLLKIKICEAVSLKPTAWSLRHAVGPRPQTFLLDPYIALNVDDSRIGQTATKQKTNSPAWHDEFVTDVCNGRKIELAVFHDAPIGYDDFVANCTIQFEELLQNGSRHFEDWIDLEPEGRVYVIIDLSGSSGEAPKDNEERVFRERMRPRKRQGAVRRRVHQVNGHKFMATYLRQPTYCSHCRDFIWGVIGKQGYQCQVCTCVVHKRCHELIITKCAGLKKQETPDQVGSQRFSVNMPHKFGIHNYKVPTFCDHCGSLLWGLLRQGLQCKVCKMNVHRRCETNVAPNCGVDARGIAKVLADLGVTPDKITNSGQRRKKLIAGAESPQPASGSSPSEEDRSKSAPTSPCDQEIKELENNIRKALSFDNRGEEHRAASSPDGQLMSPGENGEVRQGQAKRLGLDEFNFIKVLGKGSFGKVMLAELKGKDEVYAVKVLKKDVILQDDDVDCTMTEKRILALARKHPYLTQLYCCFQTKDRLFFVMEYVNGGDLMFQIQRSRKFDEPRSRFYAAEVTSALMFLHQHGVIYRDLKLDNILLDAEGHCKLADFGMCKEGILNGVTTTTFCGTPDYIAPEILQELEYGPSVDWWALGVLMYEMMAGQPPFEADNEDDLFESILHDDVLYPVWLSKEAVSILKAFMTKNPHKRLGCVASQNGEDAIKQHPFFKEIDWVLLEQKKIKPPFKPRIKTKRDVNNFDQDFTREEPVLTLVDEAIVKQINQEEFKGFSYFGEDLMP

[5] = molecular target: Serine/threonine-protein kinase Chk2 (Homo sapiens) (UniProt O96017); experiment: Selectivity interaction (KinomeScan (DiscoverX)) EUB0001619a CHEK2; conditions: at 1 µM
[6] = molecular target: Mitogen-activated protein kinase 9 (Homo sapiens, UniProt P45984); experiment: Selectivity interaction (Kinase panel (DSF assay)) EUB0001558a MAPK9
[7] = molecular target: Serine/threonine-protein kinase WNK1 (Homo sapiens) (UniProt Q9H4A3); experiment: Selectivity interaction (Kinase panel (DSF assay)) EUB0001558a WNK1
[8] = molecular target: Fibroblast growth factor receptor 3 (Homo sapiens, UniProt P22607); experiment: Selectivity interaction (Upstate Kinase Profiler service (Millipore)) EUB0000056c FGFR3; conditions: at 1 µM
[9] = molecular target: Serine/threonine-protein kinase 32A (Homo sapiens) (UniProt Q8WU08); conditions: at 10 µM
[10] = molecular target: Ribosomal protein S6 kinase alpha-1 (Homo sapiens, UniProt Q15418); experiment: Selectivity interaction (ActivX KiNativ screen (kinase selectivity in THP-1 cell lysates)) EUB0000639a RPS6KA1; format: subcellular; conditions: lysate, at 5 µM
[11] = test system: ALK tyrosine kinase receptor (Homo sapiens), Q9UM73 [L1196M]; experiment: (§1) Selectivity interaction (KinomeScan (DiscoverX)) EUB0001049a ALK; conditions: at 1 µM
[12] = molecular target: ALK tyrosine kinase receptor (Homo sapiens, UniProt Q9UM73); experiment: as §1; conditions: at 1 µM
[13] = molecular target: T4, Mitogen-activated protein kinase 12 (Homo sapiens) (UniProt P53778); experiment: Selectivity interaction (KinomeScan (DiscoverX)) EUB0001049a MAPK12; conditions: at 1 µM
T4 sequence (whole entry): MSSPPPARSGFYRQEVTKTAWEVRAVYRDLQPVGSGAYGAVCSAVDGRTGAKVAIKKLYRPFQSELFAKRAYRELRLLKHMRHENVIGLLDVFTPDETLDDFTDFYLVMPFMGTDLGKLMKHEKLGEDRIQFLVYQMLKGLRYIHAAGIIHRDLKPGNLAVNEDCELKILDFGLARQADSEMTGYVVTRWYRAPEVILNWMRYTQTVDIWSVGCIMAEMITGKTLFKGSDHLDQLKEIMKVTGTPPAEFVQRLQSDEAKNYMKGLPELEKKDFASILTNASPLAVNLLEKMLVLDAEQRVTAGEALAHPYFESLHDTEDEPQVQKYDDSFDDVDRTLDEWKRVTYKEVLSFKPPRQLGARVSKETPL

[14] = molecular target: ATPase family AAA domain-containing protein 2 (Homo sapiens) (UniProt Q6PL18); experiment: Selectivity interaction (Human bromodomain panel (DSF assay)) EUB0000233b ATAD2

Chain of ALK tyrosine kinase receptor (Q9UM73 19-1620 limits assumed): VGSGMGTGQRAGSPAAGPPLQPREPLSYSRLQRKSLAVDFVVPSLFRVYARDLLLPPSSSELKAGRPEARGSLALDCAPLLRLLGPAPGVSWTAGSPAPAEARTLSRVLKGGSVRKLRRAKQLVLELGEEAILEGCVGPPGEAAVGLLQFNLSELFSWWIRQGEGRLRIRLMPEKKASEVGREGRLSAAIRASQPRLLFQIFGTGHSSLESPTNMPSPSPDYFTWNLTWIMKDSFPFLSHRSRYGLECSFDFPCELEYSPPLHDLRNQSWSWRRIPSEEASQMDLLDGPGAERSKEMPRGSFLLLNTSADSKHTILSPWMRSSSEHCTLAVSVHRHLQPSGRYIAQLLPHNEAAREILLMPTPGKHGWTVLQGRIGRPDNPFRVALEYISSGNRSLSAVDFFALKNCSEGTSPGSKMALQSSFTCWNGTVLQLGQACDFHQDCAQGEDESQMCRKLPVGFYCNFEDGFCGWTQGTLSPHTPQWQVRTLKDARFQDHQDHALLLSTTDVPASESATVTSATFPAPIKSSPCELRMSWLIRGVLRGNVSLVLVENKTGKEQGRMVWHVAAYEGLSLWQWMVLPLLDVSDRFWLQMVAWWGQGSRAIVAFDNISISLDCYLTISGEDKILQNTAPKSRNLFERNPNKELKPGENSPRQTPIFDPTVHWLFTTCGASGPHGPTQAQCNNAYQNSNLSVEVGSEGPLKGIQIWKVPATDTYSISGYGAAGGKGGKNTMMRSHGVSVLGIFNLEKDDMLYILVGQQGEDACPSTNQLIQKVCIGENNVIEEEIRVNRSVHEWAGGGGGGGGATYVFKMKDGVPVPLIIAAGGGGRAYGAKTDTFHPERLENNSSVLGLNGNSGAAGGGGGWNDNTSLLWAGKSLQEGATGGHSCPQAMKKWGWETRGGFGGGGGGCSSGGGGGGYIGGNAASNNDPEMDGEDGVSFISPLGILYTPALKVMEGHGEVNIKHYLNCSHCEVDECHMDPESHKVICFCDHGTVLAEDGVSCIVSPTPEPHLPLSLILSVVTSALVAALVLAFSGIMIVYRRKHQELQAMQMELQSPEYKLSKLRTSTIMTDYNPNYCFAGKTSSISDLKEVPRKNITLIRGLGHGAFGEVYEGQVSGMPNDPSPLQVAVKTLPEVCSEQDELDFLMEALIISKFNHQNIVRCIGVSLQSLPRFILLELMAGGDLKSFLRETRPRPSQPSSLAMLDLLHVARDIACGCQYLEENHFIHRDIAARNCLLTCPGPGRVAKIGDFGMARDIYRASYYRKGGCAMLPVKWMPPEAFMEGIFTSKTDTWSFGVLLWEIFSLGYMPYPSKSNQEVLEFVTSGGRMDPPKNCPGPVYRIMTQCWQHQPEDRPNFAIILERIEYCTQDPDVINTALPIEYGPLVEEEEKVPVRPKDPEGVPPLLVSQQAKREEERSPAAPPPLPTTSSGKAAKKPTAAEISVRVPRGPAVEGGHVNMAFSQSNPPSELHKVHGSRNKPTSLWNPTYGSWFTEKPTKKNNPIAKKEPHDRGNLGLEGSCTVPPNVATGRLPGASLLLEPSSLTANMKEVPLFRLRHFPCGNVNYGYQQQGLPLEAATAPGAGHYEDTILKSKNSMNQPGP
Chain of Fibroblast growth factor receptor 3 (P22607 23-806 limits assumed): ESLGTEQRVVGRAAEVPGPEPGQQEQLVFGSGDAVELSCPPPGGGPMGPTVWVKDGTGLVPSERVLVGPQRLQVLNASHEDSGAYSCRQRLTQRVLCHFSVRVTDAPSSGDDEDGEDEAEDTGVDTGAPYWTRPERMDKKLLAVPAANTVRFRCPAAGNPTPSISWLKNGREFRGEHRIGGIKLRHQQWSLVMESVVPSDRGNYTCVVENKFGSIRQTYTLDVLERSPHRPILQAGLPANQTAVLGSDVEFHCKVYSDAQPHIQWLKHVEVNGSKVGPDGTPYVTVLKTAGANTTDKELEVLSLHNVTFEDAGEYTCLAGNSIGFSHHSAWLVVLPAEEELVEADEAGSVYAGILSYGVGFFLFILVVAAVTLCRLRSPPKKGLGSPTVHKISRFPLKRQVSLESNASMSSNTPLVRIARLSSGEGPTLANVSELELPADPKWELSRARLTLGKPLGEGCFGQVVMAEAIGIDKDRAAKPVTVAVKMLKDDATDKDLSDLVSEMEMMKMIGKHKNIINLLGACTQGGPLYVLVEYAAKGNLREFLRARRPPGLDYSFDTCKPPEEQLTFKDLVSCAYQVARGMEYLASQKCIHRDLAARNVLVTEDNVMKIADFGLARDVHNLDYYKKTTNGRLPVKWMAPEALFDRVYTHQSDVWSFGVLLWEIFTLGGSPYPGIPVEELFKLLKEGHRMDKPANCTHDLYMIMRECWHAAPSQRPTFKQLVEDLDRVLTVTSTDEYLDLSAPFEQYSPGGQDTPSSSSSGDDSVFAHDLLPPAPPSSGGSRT
Chain of Serine/threonine-protein kinase 32A (Homo sapiens) (Q8WU08 whole entry): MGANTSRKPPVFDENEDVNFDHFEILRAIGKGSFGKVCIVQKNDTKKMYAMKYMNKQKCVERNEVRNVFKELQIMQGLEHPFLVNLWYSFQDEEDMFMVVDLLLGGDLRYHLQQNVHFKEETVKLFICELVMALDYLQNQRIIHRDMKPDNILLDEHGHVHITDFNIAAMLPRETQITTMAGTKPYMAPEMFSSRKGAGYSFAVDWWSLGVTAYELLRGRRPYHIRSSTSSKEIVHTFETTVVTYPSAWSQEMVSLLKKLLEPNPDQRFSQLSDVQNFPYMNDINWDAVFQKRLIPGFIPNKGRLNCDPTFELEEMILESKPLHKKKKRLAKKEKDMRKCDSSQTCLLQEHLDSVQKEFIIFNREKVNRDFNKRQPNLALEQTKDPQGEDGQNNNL
Chain of Tyrosine-protein kinase ABL2 (P42684 whole entry): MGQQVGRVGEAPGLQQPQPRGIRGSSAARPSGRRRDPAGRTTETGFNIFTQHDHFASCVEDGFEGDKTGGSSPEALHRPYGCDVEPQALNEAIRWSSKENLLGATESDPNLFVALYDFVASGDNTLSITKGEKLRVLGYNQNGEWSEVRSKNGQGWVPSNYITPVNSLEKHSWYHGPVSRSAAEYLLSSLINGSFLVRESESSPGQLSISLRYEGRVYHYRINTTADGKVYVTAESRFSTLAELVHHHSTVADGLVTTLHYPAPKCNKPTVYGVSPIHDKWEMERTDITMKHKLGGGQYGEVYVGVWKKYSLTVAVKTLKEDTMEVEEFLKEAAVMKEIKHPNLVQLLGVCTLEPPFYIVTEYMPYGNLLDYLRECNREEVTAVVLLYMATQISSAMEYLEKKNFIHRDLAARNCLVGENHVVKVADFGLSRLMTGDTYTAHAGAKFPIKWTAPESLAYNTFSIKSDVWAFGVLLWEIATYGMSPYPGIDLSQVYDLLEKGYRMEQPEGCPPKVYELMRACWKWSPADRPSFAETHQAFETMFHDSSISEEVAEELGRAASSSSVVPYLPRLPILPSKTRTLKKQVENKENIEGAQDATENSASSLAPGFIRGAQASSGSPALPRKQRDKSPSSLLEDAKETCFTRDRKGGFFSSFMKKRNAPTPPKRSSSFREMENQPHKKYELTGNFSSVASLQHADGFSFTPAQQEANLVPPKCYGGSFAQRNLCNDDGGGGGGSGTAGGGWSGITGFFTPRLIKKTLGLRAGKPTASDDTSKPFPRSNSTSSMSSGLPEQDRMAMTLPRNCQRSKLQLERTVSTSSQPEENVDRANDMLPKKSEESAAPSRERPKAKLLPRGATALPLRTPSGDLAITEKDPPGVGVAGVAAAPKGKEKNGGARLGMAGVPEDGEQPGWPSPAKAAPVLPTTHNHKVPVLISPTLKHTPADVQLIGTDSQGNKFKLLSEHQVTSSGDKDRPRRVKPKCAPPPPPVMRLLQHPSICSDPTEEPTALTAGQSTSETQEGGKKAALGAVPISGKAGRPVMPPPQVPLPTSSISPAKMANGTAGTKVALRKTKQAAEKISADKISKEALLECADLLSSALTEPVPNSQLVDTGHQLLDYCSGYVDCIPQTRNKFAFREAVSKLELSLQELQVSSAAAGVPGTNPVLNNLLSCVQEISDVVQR
Chain of Ribosomal protein S6 kinase alpha-1 (Q15418 whole entry): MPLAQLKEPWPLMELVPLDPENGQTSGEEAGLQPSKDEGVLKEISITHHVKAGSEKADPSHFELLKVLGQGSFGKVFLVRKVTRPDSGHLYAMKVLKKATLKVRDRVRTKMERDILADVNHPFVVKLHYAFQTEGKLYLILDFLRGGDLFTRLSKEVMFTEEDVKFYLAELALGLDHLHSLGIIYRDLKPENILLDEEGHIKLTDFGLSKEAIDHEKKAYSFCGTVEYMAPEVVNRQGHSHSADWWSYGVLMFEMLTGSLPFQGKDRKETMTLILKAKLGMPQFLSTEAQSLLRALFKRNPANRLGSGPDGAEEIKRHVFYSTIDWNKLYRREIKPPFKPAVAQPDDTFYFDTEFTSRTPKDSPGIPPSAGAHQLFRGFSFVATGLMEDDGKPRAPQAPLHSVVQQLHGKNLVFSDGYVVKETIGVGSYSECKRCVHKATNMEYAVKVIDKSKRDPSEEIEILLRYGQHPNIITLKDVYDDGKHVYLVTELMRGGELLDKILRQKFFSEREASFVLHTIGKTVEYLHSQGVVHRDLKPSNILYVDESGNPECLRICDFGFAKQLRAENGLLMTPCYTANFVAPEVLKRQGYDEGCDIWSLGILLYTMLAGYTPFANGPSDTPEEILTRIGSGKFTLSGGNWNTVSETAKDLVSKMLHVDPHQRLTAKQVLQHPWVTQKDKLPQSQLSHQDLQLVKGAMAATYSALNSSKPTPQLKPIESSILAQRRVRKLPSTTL

`CN(C)C/C=C/C(=O)Nc1ccc(C(=O)N2CCCC(Nc3ncc(Cl)c(-c4c[nH]c5ccccc45)n3)C2)cc1` (centres undefined) gave a % of control [1] of 100%.

In the case of `CN(C(=O)c1cnn2cccnc12)c1cc2c(cc1N1CCOCC1)C(=O)N(C[C@@H](F)C(C)(C)O)C2`, the dTM [2] is reported as 0.8 K.

`Nc1cnc(N2CCc3cc(S(=O)(=O)Nc4c(F)cc(Cl)cc4F)cc(N4CCCC4=O)c32)nc1` [TP-020n] gave a % of control [3] of 95%.

With `CNC(=O)Nc1ccc(-c2nc(N3CC4CCC(C3)O4)c3cnn(C4CCC5(CC4)OCCO5)c3n2)cc1` the % of inhibition [4] was 15%.

Molecule `N#Cc1cccc(-c2c[nH]c3ncnc(N4CCOCC4)c23)c1` has a % of control [5] of 100%.

`CC(C)(O)[C@H](F)CN1Cc2cc(NC(=O)c3cnn4cccnc34)c(N3CCOCC3)cc2C1=O` gave a dTM [6] of 1.6 K and a dTM [7] of -0.2 K.

`Cc1ccc(-c2ccc3c(ccc4sc5c(c43)NC[C@@H](C)NC5=O)n2)cn1` showed a % of inhibition [8] of 16%.

For `Cc1cc([C@@H](C)Nc2ccccc2C(=O)O)c2nc(N3CCOCC3)cc(=O)n2c1` [AZD-6482], the % of control [9] was 89%.

Work on `CC[C@@H]1[C@H](F)C(=O)N[C@@H]1COc1nccc2cc(C(N)=O)c(OC)cc12` [ZIMLOVISERTIB] yielded a % of inhibition [10] of 21.5%.

`COc1cc(Nc2nc(C)cc(-c3cnn4nc(OC)ccc34)n2)cc(C(F)(F)F)c1` gave a % of control [11] of 100%, a % of control [12] of 94% and a % of control [13] of 71%.

`CN(C)CCCOc1ccc(-c2cc(NCCCn3cccn3)nc(S(C)(=O)=O)n2)cc1` showed a dTM [14] of under 2 K.
